Common to all, as to test: cell-based
The target in test [1] is T1, hNav1.4 (Homo sapiens, UniProt P35499). Type of test: cell-based. As to conditions: for Nav1.4/Nav1.7: ratio of PX tonic IC50 values; for IC50: read-out: PX hNav1.4 Tonic IC50.
Test [2] addresses T1, hNav1.4. Type of test: cell-based. As to conditions: Table 9; for IC50: IonWorks Quattro, read-out: IC50 (μM) Nav1.4; for Nav1.4/Nav1.7: ratio of IonWorks Quattro IC50 values. For orientation: In patch-clamp work, channel activity is measured electrically.
For a further test, the target named is hNav1.7 (Homo sapiens, UniProt Q15858). Type of test: cell-based. The conditions noted are these: for IC50: read-out: PX hNav1.7 Tonic IC50.
A further test concerns the target hNav1.3 (Homo sapiens, UniProt Q9NY46). The conditions noted are these: IonWorks Quattro; Table 9; read-out: IC50 (μM) Nav1.3.
The target of test [3] is T2, hNav1.5 (Homo sapiens, UniProt Q14524). The conditions noted are these: IonWorks Quattro; Table 9; read-out: IC50 (μM) Nav1.5.
T2 sequence (Q14524 whole entry): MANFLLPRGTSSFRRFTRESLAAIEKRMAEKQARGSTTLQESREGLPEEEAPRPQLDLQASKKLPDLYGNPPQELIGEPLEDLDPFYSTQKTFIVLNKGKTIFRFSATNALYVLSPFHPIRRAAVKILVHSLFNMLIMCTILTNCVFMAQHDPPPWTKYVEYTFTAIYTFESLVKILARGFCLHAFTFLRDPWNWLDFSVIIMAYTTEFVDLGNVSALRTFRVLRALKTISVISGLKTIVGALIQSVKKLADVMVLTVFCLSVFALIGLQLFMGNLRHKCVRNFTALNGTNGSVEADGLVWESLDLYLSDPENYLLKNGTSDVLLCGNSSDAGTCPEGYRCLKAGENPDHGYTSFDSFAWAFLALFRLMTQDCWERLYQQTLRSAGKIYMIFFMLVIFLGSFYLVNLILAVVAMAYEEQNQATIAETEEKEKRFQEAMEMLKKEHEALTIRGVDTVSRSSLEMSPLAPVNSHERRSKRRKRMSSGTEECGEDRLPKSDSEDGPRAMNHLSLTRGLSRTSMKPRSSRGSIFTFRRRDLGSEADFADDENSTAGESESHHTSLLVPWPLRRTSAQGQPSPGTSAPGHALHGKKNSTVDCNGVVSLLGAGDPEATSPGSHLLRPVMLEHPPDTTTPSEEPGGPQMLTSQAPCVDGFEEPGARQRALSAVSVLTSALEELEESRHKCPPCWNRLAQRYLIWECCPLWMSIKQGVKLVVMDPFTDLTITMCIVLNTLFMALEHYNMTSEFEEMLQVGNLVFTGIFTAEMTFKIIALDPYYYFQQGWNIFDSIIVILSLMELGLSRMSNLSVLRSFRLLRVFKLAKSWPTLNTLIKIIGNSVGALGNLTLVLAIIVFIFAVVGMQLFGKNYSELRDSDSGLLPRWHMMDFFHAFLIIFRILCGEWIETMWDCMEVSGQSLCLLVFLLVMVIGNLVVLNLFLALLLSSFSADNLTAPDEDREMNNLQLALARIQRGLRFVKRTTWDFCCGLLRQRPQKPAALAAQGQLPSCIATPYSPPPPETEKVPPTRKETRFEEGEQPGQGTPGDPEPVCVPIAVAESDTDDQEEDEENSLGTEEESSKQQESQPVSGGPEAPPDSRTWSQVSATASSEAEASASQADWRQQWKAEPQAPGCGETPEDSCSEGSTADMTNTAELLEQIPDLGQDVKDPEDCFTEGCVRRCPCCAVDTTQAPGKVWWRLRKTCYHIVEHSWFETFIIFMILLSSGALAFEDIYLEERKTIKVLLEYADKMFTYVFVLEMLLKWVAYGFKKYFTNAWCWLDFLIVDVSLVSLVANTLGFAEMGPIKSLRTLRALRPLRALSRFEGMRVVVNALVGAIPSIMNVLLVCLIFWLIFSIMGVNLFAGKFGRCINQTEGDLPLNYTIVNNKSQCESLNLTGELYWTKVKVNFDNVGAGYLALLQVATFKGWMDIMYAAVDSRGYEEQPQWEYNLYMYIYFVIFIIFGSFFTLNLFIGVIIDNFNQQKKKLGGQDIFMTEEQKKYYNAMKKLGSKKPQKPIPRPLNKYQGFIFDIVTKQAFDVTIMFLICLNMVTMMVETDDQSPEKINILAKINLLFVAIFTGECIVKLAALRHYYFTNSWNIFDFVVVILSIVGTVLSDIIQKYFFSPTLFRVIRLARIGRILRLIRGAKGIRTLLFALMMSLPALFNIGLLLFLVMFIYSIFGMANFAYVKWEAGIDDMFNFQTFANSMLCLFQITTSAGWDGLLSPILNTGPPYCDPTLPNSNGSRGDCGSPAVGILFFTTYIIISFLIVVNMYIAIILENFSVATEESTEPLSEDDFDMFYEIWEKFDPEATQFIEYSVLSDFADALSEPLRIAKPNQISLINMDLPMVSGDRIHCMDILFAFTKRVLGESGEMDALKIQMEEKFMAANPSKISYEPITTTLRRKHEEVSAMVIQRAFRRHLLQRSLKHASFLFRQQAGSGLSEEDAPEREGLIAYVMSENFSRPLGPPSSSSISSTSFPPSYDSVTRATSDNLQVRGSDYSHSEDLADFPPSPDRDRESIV
Test [4] addresses T2, hNav1.5. As to conditions: for Nav1.5/Nav1.7: ratio of PX tonic IC50 values; for IC50: read-out: PX hNav1.5 Tonic IC50.
For a further test, the target named is hNav1.6 (Homo sapiens, UniProt Q9UQD0). Type of test: cell-based. As to conditions: Table 15; for Nav1.6/Nav1.7: ratio of PX tonic IC50 values; for IC50: read-out: PX hNav1.6 Tonic IC50.
The mark [5] stands for this setting: ratio of PX tonic IC50 values, Table 11.
[6] abbreviates: Table 12, PatchXpress, tonic block.

“And” between values parts separate entries of the source, which are not always exact repeats. Equal values may be shown once. Read-outs that look alike come from different tables or passages of the source.

Chain of hNav1.3 (Q9NY46 whole entry): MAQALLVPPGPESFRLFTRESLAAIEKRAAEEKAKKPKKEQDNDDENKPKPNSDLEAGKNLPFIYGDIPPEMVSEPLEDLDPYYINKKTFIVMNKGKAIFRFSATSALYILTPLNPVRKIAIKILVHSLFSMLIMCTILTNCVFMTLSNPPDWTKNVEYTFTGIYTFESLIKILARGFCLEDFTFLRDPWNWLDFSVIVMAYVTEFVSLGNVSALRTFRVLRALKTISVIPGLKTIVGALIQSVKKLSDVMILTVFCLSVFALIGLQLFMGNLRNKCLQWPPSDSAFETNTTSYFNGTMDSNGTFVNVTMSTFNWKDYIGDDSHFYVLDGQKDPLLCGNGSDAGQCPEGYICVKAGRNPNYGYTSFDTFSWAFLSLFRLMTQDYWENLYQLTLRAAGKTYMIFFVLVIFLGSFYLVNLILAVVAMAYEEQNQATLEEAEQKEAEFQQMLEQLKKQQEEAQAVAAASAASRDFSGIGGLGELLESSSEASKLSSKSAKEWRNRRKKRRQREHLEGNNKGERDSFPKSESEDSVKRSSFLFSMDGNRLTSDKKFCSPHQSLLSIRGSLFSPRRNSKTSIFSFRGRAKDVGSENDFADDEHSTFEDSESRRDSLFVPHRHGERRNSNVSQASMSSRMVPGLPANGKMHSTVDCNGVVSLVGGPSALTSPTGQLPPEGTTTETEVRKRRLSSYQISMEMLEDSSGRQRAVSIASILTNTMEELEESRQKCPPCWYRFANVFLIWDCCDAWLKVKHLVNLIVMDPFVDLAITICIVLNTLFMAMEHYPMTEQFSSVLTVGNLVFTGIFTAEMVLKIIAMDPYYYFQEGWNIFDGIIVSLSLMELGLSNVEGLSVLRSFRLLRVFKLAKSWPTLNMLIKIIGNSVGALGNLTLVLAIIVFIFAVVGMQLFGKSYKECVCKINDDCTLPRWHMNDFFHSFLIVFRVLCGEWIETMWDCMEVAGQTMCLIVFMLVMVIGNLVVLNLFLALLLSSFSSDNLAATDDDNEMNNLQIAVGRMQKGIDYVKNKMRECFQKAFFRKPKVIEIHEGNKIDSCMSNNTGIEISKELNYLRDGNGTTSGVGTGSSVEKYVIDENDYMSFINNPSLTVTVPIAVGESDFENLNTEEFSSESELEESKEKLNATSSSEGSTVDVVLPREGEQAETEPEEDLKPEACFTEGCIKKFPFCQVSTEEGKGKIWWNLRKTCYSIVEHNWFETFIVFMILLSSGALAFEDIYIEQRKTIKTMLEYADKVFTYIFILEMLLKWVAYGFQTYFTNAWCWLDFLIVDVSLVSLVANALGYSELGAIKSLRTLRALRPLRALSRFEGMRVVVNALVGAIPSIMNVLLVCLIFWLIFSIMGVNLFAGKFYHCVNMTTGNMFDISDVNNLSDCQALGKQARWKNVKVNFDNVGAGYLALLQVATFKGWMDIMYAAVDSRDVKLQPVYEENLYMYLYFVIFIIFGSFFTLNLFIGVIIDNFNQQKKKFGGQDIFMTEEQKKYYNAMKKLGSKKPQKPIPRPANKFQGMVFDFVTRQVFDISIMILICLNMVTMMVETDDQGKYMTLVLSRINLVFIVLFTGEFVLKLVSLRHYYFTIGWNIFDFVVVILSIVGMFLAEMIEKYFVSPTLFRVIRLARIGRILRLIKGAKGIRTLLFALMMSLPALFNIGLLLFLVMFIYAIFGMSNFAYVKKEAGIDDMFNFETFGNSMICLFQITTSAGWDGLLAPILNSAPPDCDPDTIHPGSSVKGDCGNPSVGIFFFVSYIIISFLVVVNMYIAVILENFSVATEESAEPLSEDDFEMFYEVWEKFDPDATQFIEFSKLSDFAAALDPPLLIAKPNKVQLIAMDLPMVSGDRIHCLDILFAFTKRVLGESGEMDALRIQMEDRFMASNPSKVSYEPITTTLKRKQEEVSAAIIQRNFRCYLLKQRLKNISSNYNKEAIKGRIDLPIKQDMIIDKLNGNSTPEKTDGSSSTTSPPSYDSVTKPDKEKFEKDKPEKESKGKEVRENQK

What is called IC50 is the midpoint of a concentration-inhibition curve. Regarding `CCCC[C@@H]1NC(=O)[C@H](Cc2c[nH]c3ccccc23)NC(=O)[C@H](CCCCN)NC(=O)[C@H](CCC(N)=O)NC(=O)[C@@H](NC(=O)[C@@H](N)Cc2cn(CCCOCCOCCOCCOCCOCCOCCOCCOCCOCCOCCN)nn2)CSSC[C@@H]2NC(=O)[C@@H]3CSSC[C@@H](C(=O)N[C@@H](CCCNC(=N)N)C(=O)N[C@@H](CCCCN)C(=O)N[C@H](C(=O)N[C@H](C(N)=O)[C@@H](C)CC)[C@@H](C)CC)NC(=O)[C@H](Cc4c[nH]c5ccccc45)NC(=O)[C@H](CC(C)C)NC(=O)[C@H](CCCCN)NC(=O)[C@H](CSSC[C@H](NC(=O)[C@H]([C@@H](C)O)NC(=O)[C@H](Cc4c[nH]c5ccccc45)NC1=O)C(=O)N[C@@H](CC(=O)O)C(=O)N[C@@H](CO)C(=O)N[C@@H](CCCCN)C(=O)N[C@@H](CCCNC(=N)N)C(=O)N[C@@H](C)C(=O)N3)NC(=O)[C@H](CCCNC(=N)N)NC(=O)[C@H](CC(C)C)NC(=O)CNC(=O)[C@H](CCC(=O)O)NC2=O` [compound 248], the Nav1.4/Nav1.7 at hNav1.4 [1] (Table 13) is 15; at hNav1.4 [2], 4 and 3. For the same compound, the 50% inhibitory concentration (IC50) on hNav1.4 [1] is 15 nM; at hNav1.4 [2], 0.39 µM and 0.45 µM; at hNav1.7, 1 nM; on hNav1.3 it was 0.16 µM and 0.13 µM; at hNav1.5 [3], over 7 µM; at hNav1.5 [4], 950 nM. Also, at hNav1.5 [4] (Table 13), the Nav1.5/Nav1.7 turned out to be 946.

In the case of `CCCC[C@@H]1NC(=O)[C@H](Cc2c[nH]c3ccccc23)NC(=O)[C@H](CCCCN)NC(=O)[C@H](CCC(N)=O)NC(=O)[C@@H](NC(=O)[C@@H](N)Cc2ccc(O)cc2)CSSC[C@@H]2NC(=O)[C@@H]3CSSC[C@@H](C(=O)N[C@@H](CCCNC(=N)N)C(=O)N[C@@H](CCCCN)C(=O)N[C@H](C(=O)N[C@H](C(N)=O)[C@@H](C)CC)[C@@H](C)CC)NC(=O)[C@H](Cc4c[nH]c5ccccc45)NC(=O)[C@H](CC(C)C)NC(=O)[C@H](CCCCN)NC(=O)[C@H](CSSC[C@H](NC(=O)[C@H]([C@@H](C)O)NC(=O)[C@H](Cc4c[nH]c5ccccc45)NC1=O)C(=O)N[C@@H](CC(=O)O)C(=O)N[C@@H](Cc1cn(CCCOCCOCCOCCOCCOCCOCCOCCOCCOCCOCCN)nn1)C(=O)N[C@@H](CCCCN)C(=O)N[C@@H](CCCNC(=N)N)C(=O)N[C@@H](C)C(=O)N3)NC(=O)[C@H](CCCNC(=N)N)NC(=O)[C@H](CC(C)C)NC(=O)CNC(=O)[C@H](CCC(=O)O)NC2=O` [compound 256], the Nav1.4/Nav1.7 at hNav1.4 [1] (Table 13) amounted to 3; on hNav1.4 [2], 4. Further, the IC50 on hNav1.4 [1] is 27 nM; on hNav1.4 [2], 0.4 µM and 0.5 µM; at hNav1.7, 9.3 nM; on hNav1.3 it was 0.2 µM and 0.4 µM; at hNav1.5 [3] it was over 5 µM; on hNav1.5 [4] it was 1860 nM. In addition, the Nav1.5/Nav1.7 at hNav1.5 [4] (Table 13) worked out at 200.

`C#CC[C@@H]1NC(=O)[C@H](CCCNC(=N)N)NC(=O)[C@H](CCCCN)NC(=O)[C@H](CO)NC(=O)[C@H](CC(=O)O)NC(=O)[C@@H]2CSSC[C@@H]3NC(=O)[C@H](CCCNC(=N)N)NC(=O)[C@H](CC(C)C)NC(=O)CNC(=O)[C@H](CCC(=O)O)NC(=O)[C@H](CSSC[C@H](NC(=O)[C@@H](N)Cc4ccc(O)cc4)C(=O)N[C@@H](CCC(N)=O)C(=O)N[C@@H](CCCCN)C(=O)N[C@@H](Cc4c[nH]c5ccccc45)C(=O)N[C@@H](CCCC)C(=O)N[C@@H](Cc4c[nH]c5ccccc45)C(=O)N[C@@H]([C@@H](C)O)C(=O)N2)NC(=O)[C@H](CSSC[C@@H](C(=O)N[C@@H](CCCNC(=N)N)C(=O)N[C@@H](CCCCN)C(=O)N[C@H](C(=O)N[C@H](C(N)=O)[C@@H](C)CC)[C@@H](C)CC)NC(=O)[C@H](Cc2c[nH]c4ccccc24)NC(=O)[C@H](CC(C)C)NC(=O)[C@H](CCCCN)NC3=O)NC1=O` [compound 283]: the Nav1.4/Nav1.7 at hNav1.4 [1] (Table 12) stood at 17; on hNav1.4 [2], 1. For the same compound, the Nav1.5/Nav1.7 on hNav1.5 [4] (Table 12) is reported as 2090.

Take `CCCC[C@@H]1NC(=O)[C@H](Cc2c[nH]c3ccccc23)NC(=O)[C@H](CCCCN)NC(=O)[C@H](CCC(N)=O)NC(=O)[C@@H](NC(=O)[C@H](Cc2ccc(O)cc2)NC(=O)[C@@H](N)CCC(=O)O)CSSC[C@@H]2NC(=O)[C@@H]3CSSC[C@@H](C(=O)N[C@@H](CCCNC(=N)N)C(=O)N[C@@H](CCCCN)C(=O)N[C@@H](CCC(=O)O)C(=O)N[C@H](C(N)=O)[C@@H](C)CC)NC(=O)[C@H](Cc4c[nH]c5ccccc45)NC(=O)[C@H](CC(C)C)NC(=O)[C@H](CCCCN)NC(=O)[C@H](CSSC[C@H](NC(=O)[C@H]([C@@H](C)O)NC(=O)[C@H](Cc4c[nH]c5ccccc45)NC1=O)C(=O)N[C@@H](CC(=O)O)C(=O)N[C@@H](CO)C(=O)N[C@@H](CCCCN)C(=O)N[C@@H](CCCNC(=N)N)C(=O)N[C@@H](C)C(=O)N3)NC(=O)[C@H](CCCNC(=N)N)NC(=O)[C@H](CC(C)C)NC(=O)CNC(=O)[C@H](CCC(=O)O)NC2=O` [compound 708]: the 50% inhibitory concentration (IC50) turned out to be 99.2 nM on hNav1.4 [1] (PatchXpress, tonic, Table 11); 0.765 nM at hNav1.7 (PatchXpress, tonic, Table 11); 7600 nM on hNav1.5 [4] (PatchXpress, tonic, Table 11); 522 nM at hNav1.6. Also, the Nav1.4/Nav1.7 on hNav1.7 (setting [5]) is reported as 130. Further, on hNav1.7 (setting [5]), the Nav1.5/Nav1.7 worked out at 9941. In addition, the Nav1.6/Nav1.7 at hNav1.6 stood at 682.

Turning to `C#CC[C@H](N)C(=O)N[C@@H](CCC(=O)O)C(=O)N[C@H]1CSSC[C@@H]2NC(=O)[C@@H]3CSSC[C@@H](C(=O)N[C@@H](CCCNC(=N)N)C(=O)N[C@@H](CCCCN)C(=O)N[C@@H](CCC(=O)O)C(=O)N[C@H](C(N)=O)[C@@H](C)CC)NC(=O)[C@H](Cc4c[nH]c5ccccc45)NC(=O)[C@H](CC(C)C)NC(=O)[C@H](CCCCN)NC(=O)[C@H](CSSC[C@H](NC(=O)[C@H]([C@@H](C)O)NC(=O)[C@H](Cc4c[nH]c5ccccc45)NC(=O)[C@H](CCCC)NC(=O)[C@H](Cc4c[nH]c5ccccc45)NC(=O)[C@H](CCCCN)NC(=O)[C@H](CCC(N)=O)NC1=O)C(=O)N[C@@H](CC(=O)O)C(=O)N[C@@H](CO)C(=O)N[C@@H](CCCCN)C(=O)N[C@@H](CCCNC(=N)N)C(=O)N[C@@H](C)C(=O)N3)NC(=O)[C@H](CCCNC(=N)N)NC(=O)[C@H](CC(C)C)NC(=O)CNC(=O)[C@H](CCC(=O)O)NC2=O` [compound 709], the 50% inhibitory concentration (IC50) on hNav1.4 [1] (setting [6]) is 185 nM; at hNav1.7 (setting [6]), 1.13 nM; at hNav1.5 [4] (setting [6]), over 1000 nM; at hNav1.6, 584 nM. In addition, the Nav1.4/Nav1.7 on hNav1.4 [1] (Table 12) is 164. The Nav1.5/Nav1.7 on hNav1.5 [4] (Table 12) is over 887. The Nav1.6/Nav1.7 on hNav1.6 is on record as 518.

Take `C#CC[C@H](N)C(=O)N[C@@H](Cc1ccc(O)cc1)C(=O)N[C@H]1CSSC[C@@H]2NC(=O)[C@@H]3CSSC[C@@H](C(=O)N[C@@H](CCCNC(=N)N)C(=O)N[C@@H](CCCCN)C(=O)N[C@@H](CCC(=O)O)C(=O)N[C@H](C(N)=O)[C@@H](C)CC)NC(=O)[C@H](Cc4c[nH]c5ccccc45)NC(=O)[C@H](CC(C)C)NC(=O)[C@H](CCCCN)NC(=O)[C@H](CSSC[C@H](NC(=O)[C@H]([C@@H](C)O)NC(=O)[C@H](Cc4c[nH]c5ccccc45)NC(=O)[C@H](CCCC)NC(=O)[C@H](Cc4c[nH]c5ccccc45)NC(=O)[C@H](CCCCN)NC(=O)[C@H](CCC(N)=O)NC1=O)C(=O)N[C@@H](CC(=O)O)C(=O)N[C@@H](CCC(=O)O)C(=O)N[C@@H](CCCCN)C(=O)N[C@@H](CCCNC(=N)N)C(=O)N[C@@H](C)C(=O)N3)NC(=O)[C@H](CCCNC(=N)N)NC(=O)[C@H](CC(C)C)NC(=O)CNC(=O)[C@H](CCC(=O)O)NC2=O` [compound 714]: the Nav1.4/Nav1.7 at hNav1.4 [1] (Table 12) is 241. For the same compound, at hNav1.5 [4] (Table 12), the Nav1.5/Nav1.7 is reported as over 6341. At hNav1.6, the Nav1.6/Nav1.7 is 737.
